{
  "source": "patent US20210337839A1",
  "about": "“SYSTEM AND METHOD FOR RECO[…]” (Restrain Company Limited, priority 2020, published 2021)",
  "system": "fontane variety of potatoes",
  "description": "There now follows a description of an experimental trial by the inventors\nThe goal of the trial was to recondition French fry tubers in a 2-3 week period to improve fry colour and maintain brittle sprouts.\n3 trial cells were operated, each 85 cubic meters in size and holding fontane variety of potatoes. The stores holding each trial cell stores were warmed to 12.5° C.\nA sample was taken from each cell. Each sample was made up of 25 tubers from the front and the back of the store. The tubers selected were showing signs of sprouting in some degree and have had variable and in some cases poor fry color results.\nThe first sample was sent for a benchmark Soleye fry colour measurement. Soleye is an optical colour reader used to determine fry colour.\nGradually reducing the ethylene level by 0.5 ppm per day from […] @ 12 C\nFirst 7 days 4 ppm and from day 8 reduced to continuous 2 ppm @ 12 C",
  "data": [
    {"smiles": "C=C", "note": "[ethylene]", "values": [
      {"measurement": "Soleye fry colour score (the lower the score, the better the fry colour)", "setting": "after reconditioning, samples from store 64: continuous 2 ppm ethylene @ 12 C, FIG. 3", "result": 0},
      {"measurement": "sprout condition following reconditioning", "setting": "cells 56, 60 and 64, ethylene programmes at 12 C, 2-3 week period, all tubers", "result": "maintained brittle sprouts"}
    ]}
  ]
}
